Article PMC13371181, “A paracrine-to-autocrine shunt of GREM1 fuels colorectal cancer metastasis via ACVR1C” (Molecular Cancer, 2026)
Entries after “also recorded” stand apart in the source; their conditions may differ.

Experiments:
Type in all cases: cell-based, human
[1] = system: HCT116 cells; assay: Scratch assay, HCT116; details: HCT116, scratch assay 24 h; n = 3 independent experiments
Experimental: (§1) To investigate the effect of secreted GREM1 on CRC cells, an in vitro GREM1 secretion system was established using HEK293 cells. Stably GREM1-expressing cells (pcDNA3.1-GREM1) and empty-vector transfected cells (pcDNA3.1) were cultured in DMEM/F12 medium with 10% FBS until 40% confluence. After complete removal of the normal culture medium, HEK293-GREM1 and HEK293-Vec cells were continuously cultured in DMEM/F12 medium without FBS for 5 days before medium collection. GREM1 or Vector conditioned medium (GREM1-CM/Vec-CM) was then centrifuged at 1000 rpm for 30 min and the supernatant was collected for further study.
Cells were seeded into 6-well plates after centrifugation and digestion with 0.05% trypsin. When the cell density reached 90%, three vertical lines were scratched in each well with a 10 µL pipette tip and the floating cells were gently washed away with 1×PBS. Complete medium was added, and images of the scratch area were taken at 0 h. Three different fields of view were selected for each well. After photography, the medium was replaced with serum-free medium. Wound healing was documented at the same location after 24–48 h of incubation.

[2] = system: HCT116 and SW480 cells; assay: EMT markers by immunoblotting and RT–qPCR; details: GREM1-CM + GREM1 BAb, + SB505124 (1 µM) or + different concentrations of sb4 (sb4: immunoblotting)
Experimental: as §1
Protein was extracted from the cells with RIPA buffer (Beyotime, P0018) or NP40 lysis buffer (Beyotime, P0013F) and separated by SDS-PAGE, and transferred to polyvinylidene difluoride membranes. […] Band intensity was quantified using Fiji (ImageJ) by grayscale analysis.
Total RNA was extracted using Trizol reagent (Invitrogen, 15596026). […] The SYBR Green Premix Pro Taq HS qPCR Kit (Accurate Biology, AG11701) was then used to quantify mRNA expression according to the manufacturer’s instructions. All results were calculated using the 2^−ΔΔCt method. […]

[3] = system: SW480 cells; assay: GREM1 expression in SW480 cells after rhGREM1, RT–qPCR; details: n = 3 biological replicates
Experimental: Total RNA was extracted using Trizol reagent (Invitrogen, 15596026). According to the instructions, cDNA was generated using the PrimeScript RT reagent Kit with gDNA Eraser (Accurate Biology, AG11706). The SYBR Green Premix Pro Taq HS qPCR Kit (Accurate Biology, AG11701) was then used to quantify mRNA expression according to the manufacturer’s instructions. All results were calculated using the 2^−ΔΔCt method. Primers used in the study are listed in Supplementary Table 1.

Cc1cccc(-c2[nH]c(C(C)(C)C)nc2-c2ccc3c(c2)OCO3)n1 [SB505124]
GREM1-CM-induced migration, effect of inhibitor [1]: abolished; also recorded: suppressed
GREM1-CM-induced EMT, effect of treatment [2]: significantly blocked GREM1-CM–induced p-SMAD2/3 activation and EMT
rhGREM1-induced GREM1 expression, effect of inhibitor [3]: completely reversed the effect of rhGREM1
